Molecular target: DP-IV (Homo sapiens, UniProt P27487)
Test: DP-IV inhibition assay according to WO95/15309
Format: biochemical
Conditions: at concentrations up to 5 μM
Method: Compounds were assayed as inhibitors of DP-IV according to the methods described in WO95/15309.

Chain of DP-IV (P27487 whole entry): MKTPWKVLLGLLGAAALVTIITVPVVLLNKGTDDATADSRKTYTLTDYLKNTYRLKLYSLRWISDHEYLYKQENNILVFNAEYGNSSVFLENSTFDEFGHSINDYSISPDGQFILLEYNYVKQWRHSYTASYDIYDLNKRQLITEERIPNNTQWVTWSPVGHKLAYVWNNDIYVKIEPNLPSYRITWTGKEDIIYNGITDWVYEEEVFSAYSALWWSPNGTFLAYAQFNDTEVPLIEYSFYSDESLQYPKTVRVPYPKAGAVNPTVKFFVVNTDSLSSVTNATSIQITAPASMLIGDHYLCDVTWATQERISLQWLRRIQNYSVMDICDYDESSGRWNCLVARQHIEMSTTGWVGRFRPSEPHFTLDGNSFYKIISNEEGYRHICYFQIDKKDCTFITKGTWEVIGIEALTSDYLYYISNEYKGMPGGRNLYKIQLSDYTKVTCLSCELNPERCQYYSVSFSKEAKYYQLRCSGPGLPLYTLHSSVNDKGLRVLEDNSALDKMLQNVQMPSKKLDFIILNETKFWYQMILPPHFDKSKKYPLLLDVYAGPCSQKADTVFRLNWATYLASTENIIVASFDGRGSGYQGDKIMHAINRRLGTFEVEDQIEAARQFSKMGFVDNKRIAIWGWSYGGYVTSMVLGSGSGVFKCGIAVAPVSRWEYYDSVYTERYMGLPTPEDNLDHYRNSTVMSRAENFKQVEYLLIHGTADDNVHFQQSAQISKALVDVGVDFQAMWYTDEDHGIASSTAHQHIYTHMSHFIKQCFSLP

Structure (SMILES) | inhibition of DP-IV
CC(=O)OCOC(=O)N[C@@H](CCCNC(=O)c1cnc(Cl)c(Cl)c1)C(=O)N1CCC(F)(F)C1 [Example 8, 1-[N^α-(Acetoxymethoxycarbonyl)-N^ω-(5,6-dichloronicotinoyl)-L-ornithinyl]-3,3-difluoropyrrolidine] | do not show significant inhibition
CC(=O)OC(C)OC(=O)N[C@@H](CCCNC(=O)c1cnccn1)C(=O)N1CC(F)(F)C[C@H]1C#N (stereo partly drawn) [Example 7, (2S)-1-[N^α-(1′-Acetoxyethoxycarbonyl)-N^ω-(pyrazinyl-2-carbonyl)-L-ornithinyl]-4,4-difluoropyrrolidine-2-carbonitrile] | do not show significant inhibition
